# From ChEMBL document CHEMBL5303573, “Mapping human microbiome drug metabolism by gut bacteria and their genes” (Nature, 2019)
# Key:
# [1] = The drug is tested on Bacteroides vulgatus strain: ATCC8482 for biotransformation. The drug concentrations were measured before and after a 12-h incubation by liquid-chromatography-coupled mass spectrometry (LC–MS); settings: phocaeicola vulgatus, 2 µM
# [2] = The drug is tested on Collinsella intestinalis strain: DSM13280 for biotransformation. The drug concentrations were measured before and after a 12-h incubation by liquid-chromatography-coupled mass spectrometry (LC–MS); settings: 2 µM
# [3] = The drug is tested on Bacteroides fragilis strain: ATCC43859 for biotransformation. The drug concentrations were measured before and after a 12-h incubation by liquid-chromatography-coupled mass spectrometry (LC–MS); settings: 2 µM
# [4] = The drug is tested on Anaerococcus hydrogenalis strain: DSM7454 for biotransformation. The drug concentrations were measured before and after a 12-h incubation by liquid-chromatography-coupled mass spectrometry (LC–MS); settings: 2 µM
# [5] = The drug is tested on Bacteroides coprophilus strain: DSM18228 for biotransformation. The drug concentrations were measured before and after a 12-h incubation by liquid-chromatography-coupled mass spectrometry (LC–MS); settings: 2 µM
# [6] = The drug is tested on Providencia stuartii strain: ATCC25827 for biotransformation. The drug concentrations were measured before and after a 12-h incubation by liquid-chromatography-coupled mass spectrometry (LC–MS); settings: 2 µM
# [7] = anaerostipes sp., 12 h, 2 µM
# Description: The drug is tested on Anaerostipes sp. strain: fecal isolate for biotransformation. The drug concentrations were measured before and after a 12-h incubation by liquid-chromatography-coupled mass spectrometry (LC–MS)
# [8] = The drug is tested on Bacteroides dorei strain: DSM17855 for biotransformation. The drug concentrations were measured before and after a 12-h incubation by liquid-chromatography-coupled mass spectrometry (LC–MS); settings: phocaeicola dorei, 2 µM
# [9] = The drug is tested on Subdoligranulum variabile strain: DSM15176 for biotransformation. The drug concentrations were measured before and after a 12-h incubation by liquid-chromatography-coupled mass spectrometry (LC–MS); settings: 2 µM
# [10] = bacteroides fragilis, 12 h, 2 µM
# Description: The drug is tested on Bacteroides fragilis strain: NCTC 9343 for biotransformation. The drug concentrations were measured before and after a 12-h incubation by liquid-chromatography-coupled mass spectrometry (LC–MS)
# [11] = The drug is tested on Blautia hansenii strain: DSM20583 for biotransformation. The drug concentrations were measured before and after a 12-h incubation by liquid-chromatography-coupled mass spectrometry (LC–MS); settings: 2 µM
# [12] = bifidobacterium adolescentis, 12 h, 2 µM
# Description: The drug is tested on Bifidobacterium adolescentis strain: ATCC 15703 for biotransformation. The drug concentrations were measured before and after a 12-h incubation by liquid-chromatography-coupled mass spectrometry (LC–MS)
# [13] = The drug is tested on Parabacteroides merdae strain: ATCC43184 for biotransformation. The drug concentrations were measured before and after a 12-h incubation by liquid-chromatography-coupled mass spectrometry (LC–MS); settings: 2 µM
# [14] = The drug is tested on Coprococcus comes strain: ATCC27758 for biotransformation. The drug concentrations were measured before and after a 12-h incubation by liquid-chromatography-coupled mass spectrometry (LC–MS); format: ADME; design: dose 2 uM, timepoint 0 vs 12 hours; settings: 2 µM
# [15] = bacteroides fragilis, 12 h, 2 µM; remark: listed apart in the source
# Description: The drug is tested on Bacteroides fragilis strain: 3397 (T10) for biotransformation. The drug concentrations were measured before and after a 12-h incubation by liquid-chromatography-coupled mass spectrometry (LC–MS)
# [16] = The drug is tested on Eubacterium hallii strain: DSM3353 for biotransformation. The drug concentrations were measured before and after a 12-h incubation by liquid-chromatography-coupled mass spectrometry (LC–MS); settings: anaerobutyricum hallii, 2 µM
# [17] = bacteroides fragilis, 12 h, 2 µM; remark: listed apart in the source
# Description: The drug is tested on Bacteroides fragilis strain: DS-208 for biotransformation. The drug concentrations were measured before and after a 12-h incubation by liquid-chromatography-coupled mass spectrometry (LC–MS)
# [18] = The drug is tested on Providencia rettgeri strain: DSM1131 for biotransformation. The drug concentrations were measured before and after a 12-h incubation by liquid-chromatography-coupled mass spectrometry (LC–MS); format: ADME; design: dose 2 uM, timepoint 0 vs 12 hours; settings: 2 µM
# [19] = bacteroides stercoris, 12 h, 2 µM
# Description: The drug is tested on Bacteroides stercoris strain: ATCC43183 for biotransformation. The drug concentrations were measured before and after a 12-h incubation by liquid-chromatography-coupled mass spectrometry (LC–MS)
# [20] = The drug is tested on Bacteroides ovatus strain: ATCC8483 for biotransformation. The drug concentrations were measured before and after a 12-h incubation by liquid-chromatography-coupled mass spectrometry (LC–MS); settings: 2 µM
SMILES,Bacterial Biotransformation [1],Bacterial Biotransformation [2],Bacterial Biotransformation [3],Bacterial Biotransformation [4],Bacterial Biotransformation [5],Bacterial Biotransformation [6],Bacterial Biotransformation [7],Bacterial Biotransformation [8],Bacterial Biotransformation [9],Bacterial Biotransformation [10],Bacterial Biotransformation [11],Bacterial Biotransformation [12],Bacterial Biotransformation [13],Bacterial Biotransformation [14],Bacterial Biotransformation [15],Bacterial Biotransformation [16],Bacterial Biotransformation [17],Bacterial Biotransformation [18],Bacterial Biotransformation [19],Bacterial Biotransformation [20]
Br.COc1ccc2c(c1)[C@]13CCCC[C@@H]1[C@H](C2)N(C)CC3.O [DEXTROMETHORPHAN HYDROBROMIDE],Compound NOT metabolized,Compound NOT metabolized,Compound NOT metabolized,Compound NOT metabolized,Compound NOT metabolized,Compound NOT metabolized,Compound NOT metabolized,Compound NOT metabolized,Compound NOT metabolized,Compound NOT metabolized,Compound NOT metabolized,Compound NOT metabolized,Compound NOT metabolized,Compound NOT metabolized,Compound NOT metabolized,Compound NOT metabolized,Compound NOT metabolized,Compound NOT metabolized,Compound NOT metabolized,Compound NOT metabolized
C[C@H]1O[C@@H](O[C@H]2[C@@H](O)C[C@H](O[C@H]3[C@@H](O)C[C@H](O[C@H]4CC[C@@]5(C)[C@H](CC[C@@H]6[C@@H]5C[C@@H](O)[C@]5(C)[C@@H](C7=CC(=O)OC7)CC[C@]65O)C4)O[C@@H]3C)O[C@@H]2C)C[C@H](O)[C@@H]1O [DIGOXIN],Compound metabolized,Compound NOT metabolized,Compound metabolized,Compound NOT metabolized,Compound metabolized,Compound NOT metabolized,Compound NOT metabolized,Compound metabolized,Compound NOT metabolized,Compound NOT metabolized,Compound metabolized,Compound NOT metabolized,Compound metabolized,Compound NOT metabolized,Compound metabolized,Compound NOT metabolized,Compound metabolized,Compound NOT metabolized,Compound metabolized,Compound metabolized
Nc1nc(N)nc(-c2cc(Cl)ccc2Cl)n1.O=C(O)/C=C\C(=O)O [IRSOGLADINE MALEATE],Compound NOT metabolized,Compound NOT metabolized,Compound NOT metabolized,Compound NOT metabolized,Compound NOT metabolized,Compound NOT metabolized,Compound NOT metabolized,Compound metabolized,Compound NOT metabolized,Compound NOT metabolized,Compound NOT metabolized,Compound NOT metabolized,Compound NOT metabolized,Compound NOT metabolized,Compound NOT metabolized,Compound NOT metabolized,Compound NOT metabolized,Compound NOT metabolized,Compound NOT metabolized,Compound NOT metabolized
CC(CCc1ccccc1)NCC(O)c1ccc(O)c(C(N)=O)c1 (stereo not given) [LABETALOL],Compound NOT metabolized,Compound NOT metabolized,Compound NOT metabolized,Compound NOT metabolized,Compound NOT metabolized,Compound NOT metabolized,Compound NOT metabolized,Compound NOT metabolized,Compound NOT metabolized,Compound NOT metabolized,Compound NOT metabolized,Compound NOT metabolized,Compound NOT metabolized,Compound NOT metabolized,Compound NOT metabolized,Compound NOT metabolized,Compound NOT metabolized,Compound NOT metabolized,Compound NOT metabolized,Compound NOT metabolized
N#Cc1ccc(C(c2ccc(C#N)cc2)n2cncn2)cc1 [LETROZOLE],Compound NOT metabolized,Compound NOT metabolized,Compound NOT metabolized,Compound NOT metabolized,Compound NOT metabolized,Compound NOT metabolized,Compound NOT metabolized,Compound NOT metabolized,Compound NOT metabolized,Compound NOT metabolized,Compound NOT metabolized,Compound NOT metabolized,Compound NOT metabolized,Compound NOT metabolized,Compound NOT metabolized,Compound NOT metabolized,Compound NOT metabolized,Compound NOT metabolized,Compound NOT metabolized,Compound NOT metabolized
